Measurements as given in PubChem BioAssay AID328 (DTP/NCI, 2004).
“And” between values parts separate entries of the source, which are not always exact repeats. Equal entries are not always repeated. Toxic doses and inconclusive results are not listed.

Tested on: BDF1 mice, P388 leukemia ip, median survival T/C
Test: NCI In Vivo Anticancer Drug Screen. Data for tumor model P388 Leukemia (intraperitoneal) in B6D2F1 (BDF1) mice
Details: endpoint: median survival time, higher = longer survival
Procedure, shortened: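 Steps: implant the tumour, treat one group with compound and another with vehicle, record survival, then divide treated by control.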

[1] = dose: 25.0 mg/kg/injection, schedule: Q04DX003 (ip), vehicle: saline
[2] = dose: 50.0 mg/kg/injection, schedule: Q04DX003 (ip), vehicle: saline
[3] = dose: 100.0 mg/kg/injection, schedule: Q04DX003 (ip), vehicle: saline
[4] = dose: 100.0 mg/kg/injection, schedule: Q01DX009 (ip), vehicle: saline with Tween-80
[5] = dose: 100.0 mg/kg/injection, schedule: Q04DX003 (ip), vehicle: saline with Tween-80
[6] = dose: 200.0 mg/kg/injection, schedule: Q01DX009 (ip), vehicle: saline with Tween-80
[7] = dose: 400.0 mg/kg/injection, schedule: Q04DX003 (ip), vehicle: saline with Tween-80

CC(=O)Nc1ccc(NC(=O)c2ccc([As](O)O)cc2)cc1
T/C (dose: 29.0 mg/kg/injection, schedule: Q04DX003 (ip), vehicle: Klucel (hydroxypropylcellulose) (HPC)): 109 % of control | T/C (dose: 45.0 mg/kg/injection, schedule: Q01DX009 (ip), vehicle: saline): 102 % of control | T/C (dose: 45.0 mg/kg/injection, schedule: Q04DX003 (ip), vehicle: Klucel (hydroxypropylcellulose) (HPC)): 113 % of control | T/C (dose: 65.0 mg/kg/injection, schedule: Q01DX009 (ip), vehicle: saline): 116 % of control | T/C (dose: 200.0 mg/kg/injection, schedule: Q01DX009 (ip), vehicle: Klucel (hydroxypropylcellulose) (HPC)): 170 % of control | T/C (dose: 265.0 mg/kg/injection, schedule: Q01DX009 (ip), vehicle: Klucel (hydroxypropylcellulose) (HPC)): 159 % of control

COC(=O)/C=C/CCOS(C)(=O)=O
T/C (dose: 100.0 mg/kg/injection, schedule: Q04DX002 (ip), vehicle: saline with Tween-80): 104 % of control | T/C (dose: 200.0 mg/kg/injection, schedule: Q04DX002 (ip), vehicle: saline with Tween-80): 124 % of control | T/C (dose: 400.0 mg/kg/injection, schedule: Q04DX002 (ip), vehicle: saline with Tween-80): 107 % of control

Cc1cc(Cl)c2ccccc2[n+]1C
T/C [1]: 96 % of control | T/C [2]: 88 % of control | T/C [3]: 103 % of control

NC(=O)CN1C(=O)c2ccccc2C1=O
T/C [4]: 100 % of control | T/C [5]: 95 % of control | T/C [6]: 90 % of control | T/C (dose: 200.0 mg/kg/injection, schedule: Q04DX003 (ip), vehicle: saline with Tween-80): 100 % of control | T/C (dose: 400.0 mg/kg/injection, schedule: Q01DX009 (ip), vehicle: saline with Tween-80): 100 % of control | T/C [7]: 100 % of control

C=CCC(B1OCCO1)B1OCCO1
T/C [1]: 95 % of control | T/C [2]: 90 % of control | T/C [3]: 100 % of control

N=Nc1c2ccccc2c2nc3c(N)[nH]nc(N)c3nc12
T/C [5]: 97 % of control | T/C [7]: 95 % of control

CC(C)(CC(=O)O)c1ccccc1
T/C [1]: 89 % of control and 109 % of control | T/C [2]: 104 % of control and 120 % of control | T/C [3]: 102 % of control and 106 % of control | T/C (dose: 200.0 mg/kg/injection, schedule: Q04DX003 (ip), vehicle: saline): 102 % of control and 110 % of control and 113 % of control | T/C (dose: 400.0 mg/kg/injection, schedule: Q04DX003 (ip), vehicle: saline): 105 % of control

CC(=O)O.[Au].c1ccc([PH+](c2ccccc2)c2ccccc2)cc1
T/C [5]: 110 % of control

[NH-]C(Cc1ccc(O)cc1)C(=O)O.[NH-]C(Cc1ccc(O)cc1)C(=O)O.[Ni+2] (centres undefined)
T/C (dose: 2.0 mg/kg/injection, schedule: Q01DX009 (ip), vehicle: saline): 111 % of control | T/C (dose: 4.0 mg/kg/injection, schedule: Q01DX009 (ip), vehicle: saline): 107 % of control | T/C (dose: 8.0 mg/kg/injection, schedule: Q01DX009 (ip), vehicle: saline): 121 % of control | T/C [1]: 112 % of control | T/C [2]: 114 % of control

O=C(/C=C/c1ccc(OCc2ccccc2)cc1)c1cccc(Cl)c1
T/C (dose: 50.0 mg/kg/injection, schedule: Q01DX009 (ip), vehicle: saline with Tween-80): 105 % of control | T/C [4]: 96 % of control | T/C [6]: 89 % of control

C1CCNCC1.O=C([CH-]C(=O)C(F)(F)F)c1cccs1.O=C([CH-]C(=O)C(F)(F)F)c1cccs1.O=C([CH-]C(=O)C(F)(F)F)c1cccs1.O=C([CH-]C(=O)C(F)(F)F)c1cccs1.[Eu+3]
T/C (dose: 100.0 mg/kg/injection, schedule: Q01DX009 (ip), vehicle: saline): 122 % of control

C=CCN(CC=C)CC=C
T/C [1]: 111 % of control | T/C [2]: 108 % of control | T/C [3]: 111 % of control

CC(=O)Nc1ccc([N+](=O)[O-])c(NC(C)=O)n1
T/C (dose: 50.0 mg/kg/injection, schedule: Q04DX003 (ip), vehicle: Klucel (hydroxypropylcellulose) (HPC)): 110 % of control | T/C (dose: 100.0 mg/kg/injection, schedule: Q04DX003 (ip), vehicle: Klucel (hydroxypropylcellulose) (HPC)): 105 % of control | T/C (dose: 200.0 mg/kg/injection, schedule: Q04DX003 (ip), vehicle: Klucel (hydroxypropylcellulose) (HPC)): 100 % of control
